The values that follow come from patent publication US11459323B2, “Monocyclic β-lactam compound for treating bacterial infection” (MEDSHINE DISCOVERY INC., priority 2018, dated 2022).

Marks after values point to notes of the source that are not given here.

Assay [1] deals with Pseudomonas aeruginosa PA14. Nature of the assay: Lungs of immunosuppressed mice infected with Pseudomonas aeruginosa (1), lung bacterial load. It counts as in vivo. As to conditions: 24 hours after infection, day, ip at 2 h, 4 h, 6 h, 8 h. The protocol: Pseudomonas aeruginosa PA14. 64 mice were intraperitoneally injected with 150 mg/kg cyclophosphamide on the first day and the fourth day to give immunosuppressed mice. […] [table] The mice were injected with 50 μL of bacterial solution (2×10^3 CFU) through the airway. 2 hours after the infection, 4 mice in the model group was sacrificed by removing cervical vertebra. Two hours after infection, the drugs were administered by groups, and the mice were administered intraperitoneally once at 2 hours, 4 hours, 6 hours, and 8 hours, a total of 4 times. Mice of each group were sacrificed by removing cervical vertebra 24 hours after infection, lung and kidney tissues were taken aseptically and put into sterilized tissue homogenate tubes, weighed, and an appropriate amount of normal saline (NS) was added, the mixture was homogenized by a homogenizer for 1 min, the lung tissues of the model group were diluted 10^4, 10^5, 10^6 times, the lung tissues of each administration group were diluted 10, 100 times, the kidney tissues of the model group were diluted 10^2, […], 10^4 times, and the lung tissues of each administration group were diluted 10 times, the obtained mixtures were coated on TSA plates using spiral coater, then incubated at 37° C. overnight, and the CFU was counted with a colony counter. Graphpad Prism mapping software was used to make scatter plots of lung tissue CFU. SPSS19.0 software was used to count CFU and average body weight, and analysis of variance was used to analyze differences between groups.

Assay [2] concerns Pseudomonas aeruginosa PA14. The experiment in a line: Lungs of immunosuppressed mice infected with Pseudomonas aeruginosa (2), lung bacterial load. It counts as in vivo. As to conditions: 24 hours after infection, total dosage 60 mg/kg, day, ip at 2 h, 4 h, 6 h, 8 h. Here is the method: Pseudomonas aeruginosa PA14. 60 mice were intraperitoneally injected with 150 mg/kg cyclophosphamide on day 1 and day 4 to give immunosuppressed mice. […] [table] The mice were injected with 50 μL of bacterial solution (2×10^3 CFU) through the airway. 2 hours after the infection, 4 mice in the model group was sacrificed by removing cervical vertebra. Two hours after infection, the drugs were administered by groups, and the mice were administered intraperitoneally once at 2 hours, 4 hours, 6 hours, and 8 hours, a total of 4 times. Mice of each group were sacrificed by removing cervical vertebra 24 hours after infection, lung and kidney tissues were taken aseptically and put into a sterilized tissue homogenate tube, weighed, and an appropriate amount of normal saline (NS) was added, the mixture was homogenized by a homogenizer for 1 min, the lung tissues of the model group were diluted 10^4, 10^5, 10^6 times, the lung tissues of each administration group were diluted 10, 100 times, the kidney tissues of the model group were diluted 10^2, 10^3, 10^4 times, and the lung tissues of each administration group were diluted 10 times, the obtained mixtures were coated on TSA plates using spiral coater, then incubated at 37° C. overnight, and the CFU was counted with a colony counter. Graphpad Prism mapping software was used to make scatter plots of lung tissue CFU. SPSS19.0 software was used to count CFU and average body weight, and analysis of variance was used to analyze differences between groups.

Consider `CC1(C)[C@H](NC(=O)/C(=N\O[C@@H](COc2ccc(C(=N)N[C@@H]3CCCNC3)cc2)C(=O)O)c2csc(N)n2)C(=O)N1OS(=O)(=O)O` [I-g, reference compound], for which the LOG10-of bacterial load is recorded as 1.58 ± 2.45 in assay [1] (total dosage 120 mg/kg), 0** in assay [1] (total dosage 200 mg/kg) and 1.65 ± 1.39 in assay [2].
